From article PMC3252375 (PLoS Pathogens, 2012) come the findings set out here.

Molecules are shown by their SMILES. Read-outs that look alike come from different tables or passages of the source.

In test [1] the test system is LncP (Legionella nucleotide carrier Protein).
The test system is the same in test [2]. The test is classed as biochemical, Legionella pneumophila.

As usually defined, the Km is the concentration of substrate that gives half-maximal velocity. Turning to `Nc1ncnc2c1ncn2[C@@H]1O[C@H](COP(=O)(O)OP(=O)(O)OP(=O)(O)O)[C@@H](O)[C@H]1O` [ATP], the Km in test [1] stood at 190 ± 37 µM.

On to `Nc1nc2c(ncn2[C@@H]2O[C@H](COP(=O)(O)OP(=O)(O)OP(=O)(O)O)[C@@H](O)[C@H]2O)c(=O)[nH]1` [GTP], for which, in test [2], the Michaelis constant (Km) turned out to be 183 ± 32 µM.
